Data from paper PMC8192908 (Scientific Reports, 2021).
Marks after values point to notes of the source that are not given here.

Columns and labels:
[1] = system: spermatozoa from normozoospermic samples; assay: Calcium ionophore-induced acrosome reaction assay; assay type: cell-based, human; details: PTX 1 mM, PTXm-1 0.25 mM
Description: The ionophore-induced acrosome reaction was assessed using a method described earlier. The swim-up fraction collected (at 1 and 2 h after incubation) from various groups were incubated with calcium ionophore A23187 (Sigma-Aldrich, Cat. No. C7522) at 37 °C for 1 h (N = 28, normozoospermic). Sperm suspension was washed with phosphate buffered solution (PBS), centrifuged at 300 g for 10 min and fixed on a coverslip using methanol. The spermatozoa were stained with Fluorescein isothiocyanate-conjugated Pisum sativum agglutinin (FITC-PSA, Sigma-Aldrich, Cat. No. L0770), washed with Milli-Q water, counterstained with propidium iodide (PI) and then mounted on slide using mounting media. Percentage of acrosome reacted spermatozoa (without green florescence in acrosome region) were counted in 500 spermatozoa by observing under fluorescence microscope (400x).

[2] = system: testicular spermatozoa; assay: Twitching motility of testicular spermatozoa; assay type: cell-based, human; details: PTX 1 mM, PTXm-1 0.25 mM; for spermatozoa with twitching motility vs control: increased incubation time (1 h)
Text: Testicular tissue from men diagnosed with prostate cancer and admitted for orchiectomy (N = 8, age 74.33 ± 5.61 years) were collected from Urology operation theater in sterile PBS. The testis was transferred to Petri dish, washed in phosphate buffered solution (PBS) and cut into small pieces. Seminiferous tubule contents were released into the Petri dish containing EBSS medium with 0.1% BSA by milking the seminiferous tubules with the help of with the help of sterile glass slides. The cell suspension was screened for the presence of testicular spermatozoa under inverted microscope (200 × magnification). The cell suspension was divided into four equal parts- (a) Control (C): […] (b) Vehicle control (VC): […] The testicular sperm suspension was processed by discontinuous gradient technique using 40% and 80% density solutions ([…], Germany). The discontinuous gradient column was prepared by adding 1 mL of 80% and 40% gradient solutions sequentially in a sterile test tube. The testicular cell suspension was carefully added above the gradients and centrifuged at 500 g for 20 min. The pellet obtained after centrifugation was further washed by centrifuging at 400 g for 8 min twice.

[3] = system: ejaculated spermatozoa; assay: Sperm motility in ejaculated spermatozoa (swim-up, manual assessment); assay type: cell-based, human; details: PTXm-1 0.25 mM; for progressive motility vs controls / total motility vs controls: 1 h; for progressive motility vs controls / total motility vs controls / percentage of total motile spermatozoa vs controls: PTX 1 mM; for percentage of total motile spermatozoa vs controls: 1 h and 24 h
Description: (§1) For the study, subjects with 2–7 days of sexual abstinence were asked to provide their ejaculates by masturbation. After the completion of semen analysis (WHO, 2010), the leftover semen sample from each subject was used for experiment within 1 h of collection and was equally divided into four groups. The semen samples were washed twice with EBSS media (with bicarbonate buffer) by centrifuging at 500 g for 8 min to remove the seminal plasma. […] The EBSS medium used was with bicarbonate buffer. The samples were incubated for 1 h at 37 °C and 5% CO2. The overlay containing motile fraction of capacitated spermatozoa were collected carefully without disturbing the pellet and used for further analysis. The swim-up fraction containing motile spermatozoa were assessed for motility using manual method and sperm motion characteristics using computer assisted sperm analysis (CASA) as described earlier. […] Percentage of spermatozoa with total and progressive motility was calculated. For CASA, 8 µL sperm suspension was placed on a clean microscopic slide, covered with coverslip (18 mm × 18 mm).

[4] = system: Oct4, Sox2, Nanog, Cdx2 in blastocysts; assay: mRNA expression of pluripotency and trophectoderm genes in blastocysts; assay type: cell-based, Swiss albino mice; details: PTX 1 mM, PTXm-1 0.25 mM
Description: RNA was extracted from blastocyst stage embryos (30 per group) using an RNA isolation aqueous micro kit (Catalogue No. AM1931; Ambion, Foster City, CA, USA) as explained. Briefly, embryos were lysed using lysis buffer to release total RNA and was eluted using elution buffer. RNA obtained was treated with DNase for 20 min at 37 °C and stored at − 80 °C. cDNA was synthesized using a Superscript first strand cDNA synthesis kit for reverse transcription polymerase chain reaction (Catalogue No. E6300; NewEngland Biolabs, Ipswich, MA, USA).
Quantitative PCR for relative expression of Sox2, Nanog, and Oct4 mRNA was done using StepOne real-time PCR system (Applied Biosystems, California, USA) with TaqMan® Gene Expression Assay probes and TaqMan® Fast Advanced MixThe relative mRNA expression of Cdx2 was also estimated using real-time PCR system with SYBER Green chemistry (TaKaRa, Shiga, Japan, Cat. No. RR420A). All the data were normalized with GAPDH housekeeping gene as an internal control. The relative expression levels were calculated in terms of fold change. The IDs for TaqMan® Gene Expression Assay probes used in this study and the specific primers used for Cdx2 gene and GAPDH housekeeping gene are given in Supplementary Table S1.

[5] = system: tyrosine phosphorylated sperm proteins; assay: Tyrosine phosphorylation of sperm proteins by immunofluorescence; assay type: cell-based, human; details: PTX 1 mM, PTXm-1 0.25 mM; control 16%
Description: The cells were incubated with blocking solution (PBS containing 1% BSA and 0.1% Tween-20) for 1 h followed by incubation at 4 °C overnight with anti phospho-tyrosine antibody (1:300 dilution, Clone PY20, Merck Millipore, Cat. No. 05–947). […] No. S6MQT0101), cells were counterstained with DAPI and observed under fluorescence microscope (1000x, oil immersion). The number of tyrosine phosphoprotein positive spermatozoa were counted in total of 500 spermatozoa and the result was expressed in percentage spermatozoa.

[6] = system: spermatozoa from asthenozoospermic semen samples; assay: Sperm kinematics by computer assisted semen analysis (CASA); assay type: cell-based, human; details: 1 h after incubation; PTX 1 mM, PTXm-1 0.25 mM; mean ± SE, N = 28
Description: as §1

[7] = 15 min after incubation, control 5.06 ± 0.98%
[8] = asthenozoospermic samples, 24 h

| SMILES | acrosome reacted spermatozoa ([1]; 1 h, control 15.21%) [%] | acrosome reacted spermatozoa ([1]; 2 h) [%] | spermatozoa with twitching motility [2, 7] [%] | spermatozoa with twitching motility ([2]; 24 h incubation) [%] | spermatozoa with twitching motility vs control [2] | progressive motility vs controls ([3]; asthenozoospermic samples) | total motility vs controls ([3]; asthenozoospermic samples) | percentage of total motile spermatozoa vs controls ([3]; normozoospermic samples) | expression of pluripotency genes in blastocysts [4] | spermatozoa with tyrosine phosphorylated proteins [5] [%] | ALH [6] | BCF [6] | LIN [6] | VAP [6] [µm/s] | VCL [6] | VSL [6] [µm/s] | WOB [6] | further results |
| --- | --- | --- | --- | --- | --- | --- | --- | --- | --- | --- | --- | --- | --- | --- | --- | --- | --- | --- |
| CC(=O)CCCCn1c(=O)c2c(ncn2C)n(C)c1=O [PTX, pentoxifylline] | 24.25 | 34.28 | 11.78 ± 1.36 | 7.90 ± 1.06 | significantly higher (P < 0.001) | significantly higher | significantly higher | increased | did not differ between the groups | 24.75 | 5.04 ± 0.06^b µm | 8.56 ± 0.17 Hz | 28.47 ± 1.01 | 47.89 ± 0.96 | 112.60 ± 3.10^b µm/s | 28.34 ± 4.67 | 42.54 ± 0.61^b | STR [6]: 66.94 ± 0.98^b,c |
| COc1ccc2cc(/C=C/C(=O)CCCCn3c(=O)c4c(ncn4C)n(C)c3=O)ccc2c1 [PTXm-1] | 15.78 | 25.17 | 9.95 ± 0.79 | 13.39 ± 0.65 | significantly higher (P < 0.001) | significantly higher | significantly higher | increased | did not differ between the groups | 23.25 | 5.21 ± 0.09^b µm | 9.67 ± 0.19^b,c,d Hz | 27.78 ± 1.02 | 45.90 ± 0.97 | 109.6 ± 3.27^a µm/s | 27.67 ± 3.79 | 41.87 ± 0.70^b | percentage of progressively motile spermatozoa vs PTX [3, 8]: considerably (P < 0.001) higher percentage; percentage of total motile spermatozoa vs PTX [3, 8]: considerably (P < 0.001) higher percentage; percentage of progressively motile spermatozoa vs C, VC and PTX ([3]; normozoospermic samples, 24 h): higher percentage of progressively motile spermatozoa |
